Data set [1] has as its system Rattus norvegicus. Briefly: Effect on plasma glucose level in normal Rattus norvegicus Wistar (rat) at 20 mg/kg, po administered for 15 days by glucose oxidase method (reference value: 85.7 +/- 7.2 mg/dl). The settings on record: in vivo, 360 h. The class given is organism-based. Details: dose 20 mg/kg, route oral.
Data set [2] concerns Rattus norvegicus. In words: Antidiabetic activity in Rattus norvegicus Wistar (rat) assessed as STZ-induced plasma glucose level at 20 mg/kg, po administered for 15 days by glucose oxidase method (reference value: 377.3 +/- 10.5 mg/dl). Type of data set: functional.
Data set [3] deals with Rattus norvegicus. Briefly: Antidiabetic activity in po dosed Rattus norvegicus Wistar (rat) assessed as decrease in STZ-induced plasma glucose level administered for 15 days by glucose oxidase method. Type of data set: functional, organism-based.
Data set [4] relates to Rattus norvegicus. In words: Antidiabetic activity in Rattus norvegicus Wistar (rat) assessed as STZ-induced plasma glucose level at 5 mg/kg, po administered for 15 days by glucose oxidase method (reference value: 377.3 +/- 10.5 mg/dl). The class given is functional.
Data set [5] relates to Rattus norvegicus. Briefly: Antidiabetic activity in Rattus norvegicus Wistar (rat) assessed as STZ-induced plasma glucose level at 10 mg/kg, po administered for 15 days by glucose oxidase method (reference value: 377.3 +/- 10.5 mg/dl). Type of data set: functional.

Regarding `C=C1C(=O)O[C@@H]2/C=C(\C)CC/C=C(\C)CC[C@@H]12` [COSTUNOLIDE], the Activity in the data set with Rattus norvegicus [1] is 85.5 mg/dL; in the data set on Rattus norvegicus [2], 167 mg/dL; with Rattus norvegicus [3], “Dose-dependent effect”; in the data set on Rattus norvegicus [4] it was 285.5 mg/dL; in the data set on Rattus norvegicus [5], 240.7 mg/dL.

With `C=C1CC[C@H]2C(C)=CC[C@H]3C(=C)C(=O)O[C@@H]3[C@@H]12` [EREMANTHIN], the Activity in the data set with Rattus norvegicus [1] is 95.57 mg/dL; with Rattus norvegicus [2], 188.76 mg/dL; in the data set on Rattus norvegicus [3], “Dose-dependent effect”; in the data set with Rattus norvegicus [4], 308.41 mg/dL; in the data set with Rattus norvegicus [5], 265.27 mg/dL.

These data come from ChEMBL document CHEMBL3045971, “Normalizing effects of Costus speciosus rhizome crude extracts and its fractions on diabetic complications in STZ-induced diabetic rats” (Med Chem Res, 2011).
